The target in one series is T1, RET (Homo sapiens, UniProt P07949).
T1 construct: expresses the amino acid region 658-1072 (Swiss prot No. Q9BTB0); made in house; host or cells: Sf9 insect cells (baculovirus, vector pFB-GSTX3)
T1 sequence (P07949 658-1072 isoform P07949-2): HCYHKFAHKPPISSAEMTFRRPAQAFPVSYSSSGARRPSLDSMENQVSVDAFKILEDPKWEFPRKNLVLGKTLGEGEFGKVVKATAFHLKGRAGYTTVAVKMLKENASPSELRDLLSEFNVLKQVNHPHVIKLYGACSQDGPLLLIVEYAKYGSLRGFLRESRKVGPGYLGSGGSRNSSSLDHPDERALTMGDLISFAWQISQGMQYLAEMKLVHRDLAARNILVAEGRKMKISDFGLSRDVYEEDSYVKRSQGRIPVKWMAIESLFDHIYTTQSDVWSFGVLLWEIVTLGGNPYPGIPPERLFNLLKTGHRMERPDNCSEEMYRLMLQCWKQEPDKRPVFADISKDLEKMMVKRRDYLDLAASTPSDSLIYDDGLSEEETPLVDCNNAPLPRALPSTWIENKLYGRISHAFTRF
Briefly: RET kinase inhibition (33P incorporation into poly(Glu,Tyr), GST-wtRET or GST-RET-Men2B). The series is classed as biochemical. Here is the method: RET kinase inhibition is determined as follows:
The coding sequence for the cytoplasmic domain of wtRET is amplified by PCR from a cDNA library using specific primers. RET-Men2B is generated through site-directed mutagenesis resulting in the M918T mutation. The amplified DNA fragments and the pFB-GSTX3 vector are made compatible for ligation by digestion with SalI and KpnI. Ligation of these DNA fragments results in the baculovirus donor plasmids […] and pFB-GX3-RET-Men2B, respectively.
Production of virus: The baculovirus donor plasmids containing the kinase domains are transfected into the DH10Bac cell line (GIBCO) and the transfected cells are plated on selective agar plates. Colonies without insertion of the fusion sequence into the viral genome (carried by the bacteria) are blue. Single, white colonies are picked and viral DNA (bacmid) is isolated from the bacteria by standard plasmid purification procedures. Sf9 cells or Sf21 cells (American Type Culture Collection) are then transfected in 25 cm^2 flasks with the viral DNA using Cellfectin reagent.
Protein expression in Sf9 cells: Virus-containing media is collected from the transfected cell culture and used for infection to increase its titer. Virus-containing media obtained after two rounds of infection is used for large-scale protein expression. For large-scale protein expression 100 cm^2 round tissue culture plates are seeded with 5×10^7 cells/plate and infected with 1 mL of virus-containing media (approximately 5 MOIs). After 3 days, the cells are scraped off the plate and centrifuged at 500 rpm for 5 minutes. Cell pellets from 10-20, 100 cm^2 plates are re-suspended in 50 mL of ice-cold lysis buffer (25 mM Tris-HCl, pH 7.5, 2 mM EDTA, 1% NP-40, 1 mM DTT, 1 mM PMSF). The cells are stirred on ice for 15 minutes and then centrifuged at 5,000 rpms for 20 minutes.
Purification of GST-tagged proteins: The centrifuged cell lysate is loaded onto a 2 mL glutathione-sepharose column (Pharmacia) and washed 3× with 10 mL of 25 mM Tris-HCl, pH 7.5, 2 mM EDTA, 1 mM DTT, 200 mM NaCl. The GST-tagged proteins are then eluted by 10 applications (1 mL each) of 25 mM Tris-HCl, pH 7.5, 10 mM reduced-glutathione, 100 mM NaCl, 1 mM DTT, 10% glycerol and stored at −70° C.
Measure of enzyme activity: Tyrosine protein kinase assays with either purified GST-wtRET or GST-RET-Men2B protein are carried out in a final volume of 30 μL containing 15 ng of either GST-RET or GST-RET-Men2B protein, 20 mM Tris-HCl, pH 7.5, 1 mM MnCl2, 10 mM MgCl2, 1 mM DTT, 3 μg/mL poly(Glu, Tyr) 4:1, 1% DMSO, 2.0 μM ATP (γ-[^33P]-ATP 0.1 μCi). The activity is assayed in the presence or absence of inhibitors, by measuring the incorporation of ^33P from [γ^33P] ATP into poly(Glu, Tyr) 4:1. […] Subsequently, 40 μL of the reaction mixture are transferred onto Immobilon-PVDF membrane (Millipore) previously soaked for 5 minutes with methanol, rinsed with water, then soaked for 5 minutes with 0.5% H3PO4 and mounted on vacuum manifold with disconnected vacuum source. After spotting all samples, vacuum is connected and each well rinsed with 200 μL 0.5% H3PO4. Membranes are removed and washed 4× on a shaker with 1.0% H3PO4, once with ethanol. Membranes are counted after drying at ambient temperature, mounting in Packard TopCount 96-well frame, and addition of 10 μl/well of Microscint™ (Packard). […] One unit of protein kinase activity is defined as 1 nmole of ^33P transferred from [γ^33P] ATP to the substrate protein/minute/mg of protein at 37° C.

The next series addresses T2, Flt-3 (Homo sapiens, UniProt P36888).
T2 construct: amino acids 563-993 of the cytoplasmic kinase domain of human Flt-3; made in house; host or cells: Sf9 insect cells (baculovirus, vector pFbacG01)
T2 sequence (P36888 563-993): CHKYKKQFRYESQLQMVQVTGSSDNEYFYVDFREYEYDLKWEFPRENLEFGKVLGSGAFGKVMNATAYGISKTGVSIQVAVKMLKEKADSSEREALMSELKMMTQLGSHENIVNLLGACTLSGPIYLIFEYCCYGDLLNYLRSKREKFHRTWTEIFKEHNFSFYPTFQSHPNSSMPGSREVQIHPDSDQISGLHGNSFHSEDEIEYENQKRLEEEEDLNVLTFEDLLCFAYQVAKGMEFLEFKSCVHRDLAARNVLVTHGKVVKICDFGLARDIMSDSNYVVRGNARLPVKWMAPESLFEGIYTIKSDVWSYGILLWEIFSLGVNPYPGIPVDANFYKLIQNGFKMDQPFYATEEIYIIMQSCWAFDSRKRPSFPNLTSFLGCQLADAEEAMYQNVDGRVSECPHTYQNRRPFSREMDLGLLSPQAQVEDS
Put plainly: Flt-3 kinase inhibition (GST-Flt-3, 33P incorporation into poly(Glu,Tyr)). It counts as biochemical. Here is the method:
Flt-3 kinase inhibition is determined as follows: The baculovirus donor vector pFbacG01 (GIBCO) is used to generate a recombinant baculovirus expressing the amino acid region amino acids 563-993 of the cytoplasmic kinase domain of human Flt-3. The coding sequence for the cytoplasmic domain of Flt-3 is amplified by PCR from human c-DNA libraries (Clontech). The amplified DNA fragments and the pFbacG01 vector are made compatible for ligation by digestion with BamHI and HindIII. Ligation of these DNA fragments results in the baculovirus donor plasmid pFbacG01-Flt-3. The production of the viruses, the expression of proteins in Sf9 cells and the purification of the GST-fused proteins are performed as follows:
Production of virus: The baculovirus donor plasmid (pFbacG01-Flt-3) containing the Flt-3 kinase domain is transfected into the DH10Bac cell line (GIBCO) and the transfected cells are plated on selective agar plates. Colonies without insertion of the fusion sequence into the viral genome (carried by the bacteria) are blue. Single white colonies are picked and viral DNA (bacmid) is isolated from the bacteria by standard plasmid purification procedures. Sf9 or Sf21 cells (American Type Culture Collection) are then transfected in flasks with the viral DNA using Cellfectin reagent.
Protein expression in Sf9 cells: Virus containing media is collected from the transfected cell culture and used for infection to increase its titre. Virus containing media obtained after two rounds of infection is used for large-scale protein expression. For large-scale protein expression 100 cm^2 round tissue culture plates are seeded with 5×10^7 cells/plate and infected with 1 mL of virus-containing media (approx. 5 MOIs). After 3 days the cells are scraped off the plate and centrifuged at 500 rpm for 5 min. Cell pellets from 10-20, 100 cm^2 plates are resuspended in 50 mL of ice-cold lysis buffer (25 mM Tris-HCl, pH 7.5, 2 mM EDTA-1% NP-40. 1 mM DTT, 1 mM PMSF). The cells are stirred on ice for 15 min and then centrifuged at 5000 rpms for 20 min.
Purification of GST-tagged protein: The centrifuged cell lysate is loaded onto a 2 mL glutathione-sepharose column (Pharmacia) and washed three times with 10 mL of 25 mM Tris-HCl, pH 7.5, 2 mM EDTA, 1 mM DTT, 200 mM NaCl. The GST-tagged protein is then eluted by 10 applications (1 mL each) of 25 mM Tris-HCl, pH 7.5, 10 mM reduced-glutathione, 100 mM NaCl, 1 mM DTT, 10% Glycerol and stored at −70° C.
Measurement of enzyme activity: Tyrosine protein kinase assays with purified GST-Flt-3 protein are carried out in a final volume of 30 μL containing 200-1800 ng of enzyme protein (depending on the specific activity), 20 mM Tris-HCl, pH 7.6, 3 mM MnCl2, 3 mM MgCl2, 1 mM DTT, 10 μM Na3VO4, 3 μg/mL poly(Glu, Tyr) 4:1, 1% DMSO, 8.0 μM ATP and 0.1 μCi [γ^33 P] ATP. The activity is assayed in the presence or absence of inhibitors, by measuring the incorporation of ^33P from [γ^33P] ATP into the poly(Glu,Tyr) substrate. The assay (30 μL) is carried out in 96-well plates at ambient temperature for 20 min and terminated by the addition of 20 μL of 125 mM EDTA. Subsequently, 40 μL of the reaction mixture is transferred onto Immobilon-PVDF membrane (Millipore, Bedford, Mass., USA) previously soaked for 5 min with methanol, rinsed with water, then soaked for 5 min with 0.5% H3PO4 and mounted on vacuum manifold with disconnected vacuum source. After spotting all samples, vacuum is connected and each well rinsed with 200 μL 0.5% H3PO4. Membranes are removed and washed 4× on a shaker with 1.0% H3PO4, once with ethanol. Membranes are counted after drying at ambient temperature, mounting in Packard TopCount 96-well frame, and addition of 10 μL/well of Microscint™ (Packard). IC50 values are calculated by linear regression analysis of the percentage inhibition of each compound in duplicate, at four concentrations (usually 0.01, 0.1, 1 and 10 μM). One unit of protein kinase activity is defined as 1 nmole of ^33P transferred from [γ3P] […]

Structures are written as SMILES.

What is called IC50 is the concentration that inhibits the measured activity by half. Low readings indicate greater potency in that assay, high ones weaker potency in that assay. `CNc1cc(Oc2ccc(NC(=O)Nc3cc(CN(C)C)cc(C(F)(F)F)c3)cc2)ncn1` [1-(3-Dimethylaminomethyl-5-trifluoromethyl-phenyl)-3-[4-(6-methylamino-pyrimidin-4-yloxy)-phenyl]-urea]: at RET, the IC50 is 110 nM.

Take `CN1CCN(Cc2cc(NC(=O)Nc3ccc(Oc4cc(N)ncn4)cc3)cc(C(F)(F)F)c2)CC1` [1-[4-(6-Amino-pyrimidin-4-yloxy)-phenyl]-3-[3-(4-methyl-piperazin-1-ylmethyl)-5-trifluoromethyl-phenyl]-urea]: on RET, the IC50 is 260 nM.

On RET, `CNc1cc(Oc2ccc(NC(=O)Nc3cc(CN4CCN(C)CC4)cc(C(F)(F)F)c3)cc2)ncn1` [1-[4-(6-Methylamino-pyrimidin-4-yloxy)-phenyl]-3-[3-(4-methyl-piperazin-1-ylmethyl)-5-trifluoromethyl-phenyl]-urea] came in with an IC50 of 590 nM.

As a reminder, the melting point is the temperature, or range, at which the solid turns liquid. With `Nc1cc(Oc2ccc(NC(=O)Nc3ccc(-c4ccncc4)c(C(F)(F)F)c3)cc2)ncn1` [Example 59, 1-[4-(6-Amino-pyrimidin-4-yloxy)-phenyl]-3-(4-pyridine-4-yl-3-trifluoromethyl-phenyl)-urea], the melting point was 131 to 135 °C. In addition, the IC50 on Flt-3 came out at 76 nM.

In the case of `Cc1cccc(-c2ccc(NC(=O)Nc3ccc(Oc4cc(N)ncn4)cc3)cc2C(F)(F)F)n1` [Example 60, 1-[4-(6-Amino-pyrimidin-4-yloxy)-phenyl]-3-[4-(6-methyl-pyridin-2-yl)-3-trifluoromethyl-phenyl]-urea], the melting point fell in the range of 130 to 133 °C. On Flt-3, the midpoint of inhibition, the IC50, lay at 160 nM.

Consider `CNc1cc(Oc2ccc(NC(=O)Nc3ccc(-c4ccccn4)c(C(F)(F)F)c3)cc2)ncn1` [Example 61, 1-[4-(6-Methylamino-pyrimidin-4-yloxy)-phenyl]-3-(4-pyridin-2-yl-3-trifluoromethyl-phenyl)-urea], for which the melting point was 114 to 118 °C. The compound further came in with an IC50 against Flt-3 of 490 nM.

`CNc1cc(Oc2ccc(NC(=O)Nc3ccc(-c4cccnc4)c(C(F)(F)F)c3)cc2)ncn1` [Example 62, 1-[4-(6-Methylamino-pyrimidin-4-yloxy)-phenyl]-3-(4-pyridin-3-yl-3-trifluoromethyl-phenyl)-urea] had a melting point of 118 to 123 °C. Also, the midpoint of inhibition on Flt-3, the IC50, lay at 160 nM.

On to `CNc1cc(Oc2ccc(NC(=O)Nc3ccc(-c4ccncc4)c(C(F)(F)F)c3)cc2)ncn1` [Example 63, 1-[4-(6-Methylamino-pyrimidin-4-yloxy)-phenyl]-3-(4-pyridin-4-yl-3-trifluoromethyl-phenyl)-urea], for which the melting point fell in the range of 127 to 130 °C. At Flt-3, this compound returned an IC50 of 140 nM.

With `CNc1cc(Oc2ccc(NC(=O)Nc3ccc(-c4cccc(C)n4)c(C(F)(F)F)c3)cc2)ncn1` [Example 64, 1-[4-(6-Methylamino-pyrimidin-4-yloxy)-phenyl]-3-[4-(6-methyl-pyridin-2-yl)-3-trifluoromethyl-phenyl]-urea], the melting point fell in the range of 106 to 109 °C. This compound also displayed an IC50 at Flt-3 of 340 nM.

The record behind these values is US20080312192A1, “Diaryl Urea Derivatives in the Treatment of Protein Kinase Dependent Diseases” (priority 2003, published 2008).
